Results on 14 molecules are retold here after patent US8481525B2, “Kinase inhibitors and method of treating cancer with same” (University of Health Network, priority 2009, dated 2013).

Structures are written as SMILES. Where two headings read alike, the source gives them in different places.

Broadly, the inhibition is the percentage by which the read-out fell short of the control. The GI50 is the concentration at which growth is held to half of that of the control.

One assay has as its target T1, Aurora A (Homo sapiens, UniProt O14965).
T1 construct: purchased Invitrogen PV3612
T1 sequence (O14965 1-403): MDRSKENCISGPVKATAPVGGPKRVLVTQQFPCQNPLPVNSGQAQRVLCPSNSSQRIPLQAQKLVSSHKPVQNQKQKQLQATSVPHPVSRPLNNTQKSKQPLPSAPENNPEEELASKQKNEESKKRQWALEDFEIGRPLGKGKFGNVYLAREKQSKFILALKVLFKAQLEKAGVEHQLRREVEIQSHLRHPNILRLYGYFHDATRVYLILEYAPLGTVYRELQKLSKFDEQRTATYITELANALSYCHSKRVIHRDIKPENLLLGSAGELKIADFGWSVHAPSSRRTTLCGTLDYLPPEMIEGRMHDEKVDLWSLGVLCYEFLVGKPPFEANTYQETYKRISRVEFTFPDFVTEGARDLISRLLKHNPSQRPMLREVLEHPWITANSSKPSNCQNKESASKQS
As to the kind of experiment: Aurora A Inhibition Assay (Z-Lyte). Conditions: read-out: Aurora A relative inhibition percentage at a dose of 1 μM. Type of assay: biochemical. Here is the method: Aurora A inhibition was determined using the Z-Lyte assay kit from Invitrogen. The assay was performed using the recommended manufacturer's instructions with 20 μM ATP and 12 nM Aurora A (Invitrogen cat # PV3612). The % inhibition values were determined according to the manufacturer's directions and IC50 values were obtained using a non-linear 4 point logistic curve fit (XLfit4, IDBS)

Assay [1] concerns MDA-MB-468 basal breast cancer cell line. In words: Cell growth inhibition, Sulforhodamine B assay (SRB). Conditions: Homo sapiens, read-out: Cell Line GI50 Range MDA-MB-468. Type of assay: cell-based. Here is the method:
(§1) The cells were cultured for 5 days before the Sulforhodamine B assay (SRB) was performed to determine the compound's cell growth inhibition activity.
(§2) Sulforhodamine B (purchased from Sigma, Oakville, ON, Canada) is a water-soluble dye that binds to the basic amino acids of the cellular proteins. Thus, colorimetric measurement of the bound dye provides an estimate of the total protein mass that is related to the cell number. the cells are fixed in situ by gently aspirating off the culture media and adding 50 μl ice cold 10% Trichloroacetic Acid (TCA) per well and incubate at 4° C. for 30-60 min, The plates are washed with water five times and allowed to air dry for 5 min. […] Following staining, plates are washed four times with 1% acetic acid to remove unbound dye and then allowed to air dry for 5 min. […] Absorbance is read at 570 nm.
(§3) The percentage (%) of relative growth inhibition was calculated by comparing to DMSO treated only cells (100%). GI50's were determined for compounds with cytotoxic activity. The GI50 was calculated using GraphPad PRISM software (GraphPad Software, Inc., San Diego, Calif., USA).
(In general: In SRB staining, fixed cells bind dye roughly in proportion to their protein.)

The subject of assay [2] is MCF-7 luminal breast cancer cell line. The assay is described as above. Type of assay: cell-based. To be noted: Homo sapiens, MCF7, 120 h, 5 days culture, SRB. Here is the method: as §1, §2, §3
Assay [3] deals with SW620 colon cancer cell line. The assay is described as above. To be noted: Homo sapiens, SW-620, 120 h, 5 days culture, SRB. Type of assay: cell-based. The protocol: as §1, §2, §3
In assay [4] the test system is HCC1954 basal breast cancer cell line. The assay is described as above. Type of assay: cell-based. To be noted: Homo sapiens, read-out: Cell Line GI50 Range HCC-1954. Here is the method: as §1, §2, §3
Assay [5] deals with A549 lung cancer cell line. The description is as above. The class given is cell-based. Conditions: Homo sapiens, read-out: Cell Line GI50 Range A-549. The protocol: as §1, §2, §3
The mark [6] stands for this setting: 120 h, MDA-MB-468 basal breast cancer cell line, 5 days culture, SRB.
The mark [7] stands for this setting: MCF-7 luminal breast cancer cell line, read-out: Cell Line GI50 Range MCF-7.
Where [8] appears, read: SW620 colon cancer cell line, read-out: Cell Line GI50 Range SW-620.
[9] abbreviates: HCC1954, 120 h, HCC1954 basal breast cancer cell line, 5 days culture, SRB.
The mark [10] stands for this setting: 120 h, A549 lung cancer cell line, 5 days culture, SRB.
Where [11] appears, read: 120 h, HCC1954 basal breast cancer cell line, 5 days culture, SRB.

For the molecule `COc1ccc2c(c1)[C@@]1(C[C@@H]1c1ccc3c(/C=C/c4ccc(CN5CCOCC5)cc4)n[nH]c3c1)C(=O)N2` (racemic) [Example A41, (1R*,2S*)-(E)-5′-methoxy-2-(3-(4-(morpholinomethyl)styryl)-1H-indazol-6-yl)spiro[cyclopropane-1,3′-indolin]-2′-one 2,2,2-trifluoroacetate], the inhibition at 1 µM on Aurora A (1 μM compound, 20 μM ATP) is above 50%.
Still for that read-out and setting: in the case of `O=C1Nc2ccccc2[C@@]12C[C@@H]2c1ccc2c(/C=C/c3ccc(CN4CCCCC4)cc3)n[nH]c2c1` (racemic) [Example A57, (1R*,2S*)-(E)-2-(3-(4-(piperidin-1-ylmethyl)styryl)-1H-indazol-6-yl)spiro[cyclopropane-1,3′-indolin]-2′-one 2,2,2-trifluoroacetate] it was above 50%.
On the same count and under the same terms, in the case of `O=C1Nc2ccccc2[C@@]12C[C@@H]2c1ccc2c(/C=C/c3ccc(CN4CCCC4)cc3)n[nH]c2c1` (racemic) [Example A60, (1R*,2S*)-(E)-2-(3-(4-(pyrolidin-1-ylmethyl)styryl)-1H-indazol-6-yl)spiro[cyclopropane-1,3′-indolin]-2′-one 2,2,2-trifluoroacetate] it was above 50%.
Consider `COc1ccc2c(c1)[C@@]1(C[C@@H]1c1ccc3c(-c4ccc(N5CCN(C(C)C)CC5)cc4)n[nH]c3c1)C(=O)N2` (racemic) [Example A96, (1R*,2S*)-2-(3-(4-(4-isopropylpiperazin-1-yl)phenyl)-1H-indazol-6-yl)-5′-methoxyspiro[cyclopropane-1,3′-indolin]-2′-one], for which the GI50 in assay [1] (setting [6]) was below 100 nM; in assay [2] (setting [7]) it was below 100 nM; in assay [3] (setting [8]), below 100 nM; in assay [4] (setting [9]), 1000 to 10000 nM; in assay [5] (setting [10]), below 100 nM. On Aurora A (1 μM compound, 20 μM ATP), the inhibition at 1 µM is below 50%.
For the molecule `NS(=O)(=O)c1cccc(-c2n[nH]c3cc([C@@H]4C[C@@]45C(=O)Nc4ccccc45)ccc23)c1` (racemic) [Example A130, 3-(6-((1R*,2S*)-2′-oxospiro[cyclopropane-1,3′-indoline]-2-yl)-1H-indazol-3-yl)benzenesulfonamide], the GI50 in assay [1] (setting [6]) was 1000 to 10000 nM; in assay [2] (setting [7]), 1000 to 10000 nM; in assay [3] (setting [8]), above 10000 nM; in assay [4] (setting [11]), above 10000 nM; in assay [5] (setting [10]), above 10000 nM.
With `Cc1ccc2c(c1)[C@@]1(C[C@@H]1c1ccc3c(-c4ccc(N5CCN(C)CC5)cc4)n[nH]c3c1)C(=O)N2` (racemic) [Example A173, (1R*,2S*)-5′-methyl-2-(3-(4-(4-methylpiperazin-1-yl)phenyl)-1H-indazol-6-yl)spiro[cyclopropane-1,3′-indolin]-2′-one 2,2,2-trifluoroacetate], the GI50 in assay [1] (setting [6]), in assay [2] (setting [7]), in assay [3] (setting [8]), in assay [4] (setting [11]) and in assay [5] (setting [10]) was 100 to 1000 nM throughout.
Turning to `COc1ccc2c(c1)[C@@]1(C[C@@H]1c1ccc3c(/C=C/c4ccc(N5CCN(C)CC5)cc4)n[nH]c3c1)C(=O)N2` (racemic) [Example A174, (1R*,2S*)-(E)-5′-methoxy-2-(3-(4-(4-methylpiperazin-1-yl)styryl)-1H-indazol-6-yl)spiro[cyclopropane-1,3′-indolin]-2′-one 2,2,2-trifluoroacetate], the 50% growth inhibitory concentration (GI50) is below 100 nM in assay [1] (setting [6]); below 100 nM in assay [2] (setting [7]); below 100 nM in assay [3] (setting [8]); 100 to 1000 nM in assay [4] (setting [11]); below 100 nM in assay [5] (setting [10]).
As for `COc1ccc2c(c1)[C@@]1(C[C@@H]1c1ccc3c(/C=C/c4ccc(CCN5CCOCC5)cc4)n[nH]c3c1)C(=O)N2` (racemic) [Example A178, (1R*,2S*)-(E)-5′-methoxy-2-(3-(4-(2-morpholinoethyl)styryl)-1H-indazol-6-yl)spiro[cyclopropane-1,3′-indolin]-2′-one 2,2,2-trifluoroacetate], the GI50 in assay [1] (setting [6]) was below 100 nM; in assay [2] (setting [7]) it was below 100 nM; in assay [3] (setting [8]), below 100 nM; in assay [4] (setting [9]), 100 to 1000 nM; in assay [5] (setting [10]), below 100 nM.
Consider `COc1ccc2c(c1)[C@@]1(C[C@@H]1c1ccc3c(/C=C/c4csc(CN5CCOCC5)c4)n[nH]c3c1)C(=O)N2` (racemic) [Example A184, (1R*,2S*)-5′-methoxy-2-(3-((E)-2-(5-(morpholinomethyl)thiophen-3-yl)vinyl)-1H-indazol-6-yl)spiro[cyclopropane-1,3′-indolin]-2′-one 2,2,2-trifluoroacetate], for which the GI50 in assay [1] (setting [6]) was below 100 nM; in assay [2] (setting [7]), 100 to 1000 nM; in assay [3] (setting [8]), below 100 nM; in assay [4] (setting [11]) it was above 10000 nM; in assay [5] (setting [10]) it was below 100 nM. Moreover, on Aurora A (1 μM compound, 20 μM ATP), the inhibition at 1 µM was above 50%.
Regarding `CCN1CCN(c2ccc(/C=C/c3n[nH]c4cc([C@@H]5C[C@@]56C(=O)Nc5ccc(OC)cc56)ccc34)cc2)CC1` (racemic) [Example A188, (1R*,2S*)-(E)-2-(3-(4-(4-ethylpiperazin-1-yl)styryl)-1H-indazol-6-yl)-5′-methoxyspiro[cyclopropane-1,3′-indolin]-2′-one 2,2,2-trifluoroacetate], the GI50 in assay [1] (setting [6]) was below 100 nM; in assay [2] (setting [7]), below 100 nM; in assay [3] (setting [8]) it was below 100 nM; in assay [4] (setting [11]), 100 to 1000 nM; in assay [5] (setting [10]), below 100 nM. In addition, the inhibition at 1 µM at Aurora A (1 μM compound, 20 μM ATP) is above 50%.
In the case of `Cc1ccc2c(c1)[C@@]1(C[C@@H]1c1ccc3c(/C=C/c4ccc(CN5CCOCC5)cc4)n[nH]c3c1)C(=O)N2` (racemic) [Example A196, (1R*,2S*)-(E)-5′-methyl-2-(3-(4-(morpholinomethyl)styryl)-1H-indazol-6-yl)spiro[cyclopropane-1,3′-indolin]-2′-one 2,2,2-trifluoroacetate], at Aurora A, the inhibition at 1 µM is above 50%.
Turning to `COc1ccc2c(c1)[C@@]1(C[C@@H]1c1ccc3c(/C=C/c4cc(F)c(CN5CCOCC5)c(F)c4)n[nH]c3c1)C(=O)N2` (racemic) [Example A217, (1R*,2S*)-(E)-2-(3-(3,5-difluoro-4-(morpholinomethyl)styryl-1H-indazol-6-yl)-5′-methoxyspiro[cyclopropane-1,3′-indolin]-2′-one 2,2,2-trifluoroacetate], the inhibition at 1 µM on Aurora A (1 μM compound, 20 μM ATP) was above 50%.
Consider `O=C1Nc2ccccc2[C@]12C[C@H]2c1ccc2cn[nH]c2c1` (relative stereo) [Example A2, (1R*,2S*)-2-(1H-indazol-6-yl)spiro[cyclopropane-1,3′-indolin]-2′-one], for which the GI50 in assay [1] (MDA-MB-468, 120 h) is above 10000 nM; in assay [2] (read-out: Cell Line GI50 Range MCF-7, MCF-7 luminal breast cancer cell line), above 10000 nM; in assay [3] (read-out: Cell Line GI50 Range SW-620, SW620 colon cancer cell line), above 10000 nM; in assay [4] (HCC1954, 120 h) it was above 10000 nM; in assay [5] (A549, 120 h), above 10000 nM.
Turning to `COc1ccc2c(c1)[C@]1(C[C@@H]1c1ccc3c(-c4ccc(N5CCN(C)CC5)nc4)n[nH]c3c1)C(=O)N2` (relative stereo) [Example A17, (1R*,2R*)-5′-Methoxy-2-(3-(6-(4-methylpiperazin-1-yl)pyridin-3-yl)-1H-indazol-6-yl)spiro[cyclopropane-1,3′-indolin]-2′-one], the inhibition at 1 µM on Aurora A (1 μM compound, 20 μM ATP) is below 50%.
